Laboratory results from patent publication US5750540A, “1,4-di-substituted piperidine derivatives” (Banyu Pharmaceutical Co., Ltd., priority 1995, dated 1998).

How the values were obtained:
muscarinic M3 receptor [1] = target: T1, muscarinic M3 receptor (Rattus norvegicus, UniProt P08483); test: Inhibition of binding to muscarinic M3 receptors ([3H]-N-methylscopolamine, lacrimal gland membrane); parameters: a membrane specimen from the lacrimal glands was used as the membrane specimen; from tissue; host or cells: rat lacrimal gland membranes (SD rat)
Protocol: (§1) In these tests, their inhibitory and antagonistic effects were expressed in terms of the dissociation constant (Ki) of each test compound which was calculated from its concentration (IC50 ) causing a 50% inhibition of the binding of a labeled ligand to muscarinic receptors. As the labeled ligand, [^3 H]-telenzepine was used for the muscarinic M1 receptors and [^3 H]-N-methylscopolamine for the muscarinic M2 and M3 receptors.
(§2) A male SD strain rat (purchased from Nippon Charles River Co., Ltd.), weighing about 250-350 g, was sacrificed, and the cerebral cortex, heart and lacrimal glands were excised. Using a Polytron (setting 5), each organ was homogenized in 5 volumes of an ice-cold buffer solution (pH 7.4) containing 50 mM tris-HCl, 5 mM magnesium chloride, 1 mM trisodium ethylenediaminetetraacetate and 20% sucrose. The resulting homogenate was centrifuged at 3,000×g at 4° C. for 15 minutes, and the supernatant was filtered through gauze and ultracentrifuged at 100,000×g at 4° C. for 45 minutes. The resulting precipitate was suspended in an ice-cold buffer solution (pH 7.4) containing 50 mM tris-HCl and 5 mM magnesium chloride (hereinafter referred briefly to as "tris buffer") and ultracentrifuged at 100,000×g at 4° C. for 45 minutes. The resulting precipitate was suspended in tris buffer so as to give a concentration of 50 mg/ml and stored at -80° C. till use. The membrane specimens so prepared were thawed prior to use and submitted to tests for the inhibition of binding to muscarinic receptors.
4) Tests for the inhibition of binding to the muscarinic M2 receptors
The nonspecific binding of [^3 H]-N-methylscopolamine to receptors was determined by the addition of 1 mM N-methylscopolamine.

muscarinic M1 receptors = target: T2, muscarinic M1 receptors (Rattus norvegicus, UniProt P08482); test: Inhibition of binding to muscarinic M1 receptors ([3H]-telenzepine, cerebral cortex membrane)
T2 construct: a mixture of a membrane specimen from the cerebral cortex; from tissue; host or cells: rat cerebral cortex membranes (SD rat)
T2 sequence (P08482 1-460): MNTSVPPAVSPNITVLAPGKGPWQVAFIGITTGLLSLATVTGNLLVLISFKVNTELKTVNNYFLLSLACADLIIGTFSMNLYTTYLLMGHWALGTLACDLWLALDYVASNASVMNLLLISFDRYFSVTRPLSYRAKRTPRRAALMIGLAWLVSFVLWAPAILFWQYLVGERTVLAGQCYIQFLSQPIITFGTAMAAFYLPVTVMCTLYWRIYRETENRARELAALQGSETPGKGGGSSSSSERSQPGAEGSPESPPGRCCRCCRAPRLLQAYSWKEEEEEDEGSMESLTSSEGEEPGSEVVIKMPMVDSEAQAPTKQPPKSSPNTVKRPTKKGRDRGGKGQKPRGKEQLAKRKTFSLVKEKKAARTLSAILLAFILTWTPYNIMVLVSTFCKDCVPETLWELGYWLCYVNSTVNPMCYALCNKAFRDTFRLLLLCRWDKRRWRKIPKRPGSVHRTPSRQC
Protocol: as §1, §2
2) Tests for the inhibition of binding to the muscarinic M1 receptors
These tests were performed according to a modification of the method of Hargreaves et al. [Br. J. Pharmacol., Vol. 107, pp. 494-501 (1992)]. Specifically, a mixture of a membrane specimen from the cerebral cortex, 1 nM [^3 H]-telenzepine (85 Ci/mmol; manufactured by New England Nuclear) and a test compound in 0.5 ml of tris buffer was incubated at room temperature (about 20°-25° C.) for 120 minutes. After the addition of 0.5 ml of ice-cold tris buffer, the mixture was filtered by suction through a glass filter (Packard Unifilter Plate GF/C). Then, the filter was washed four times with 1 ml portions of ice-cold tris buffer and dried at 50° C. for an hour. After the addition of a scintillator (Packard Microscinti 0), the radioactivity of [^3 H]-telenzepine adsorbed to the filter was measured with a microplate scintillation counter (Packard Topcount). The nonspecific binding of [^3 H]-telenzepine to receptors was determined by the addition of […] pirenzepine. According to the method of Cheng and Prusoff [Biochem. Pharmacol., Vol. 22, pp. 3099-3108 (1973)], the affinity of the test compound (i.e., a compound in accordance with the present invention) for the muscarinic M1 receptors was determined in terms of its dissociation constant (Ki) calculated from the concentration (IC50) of the test compound which was required to cause a 50% inhibition of the binding of [^3 H]-telenzepine used as the labeled ligand.

muscarinic M3 receptor [2] = target: T1, muscarinic M3 receptor; test: in vivo; parameters: from tissue; host or cells: living rat, airways; conditions: iv, 5 min, read-out: Airway contraction ID50
Protocol: Tests for antagonism against muscarinic M3 receptor (in vivo)
1) Tests for bronchodilation in rats
Eight- to eleven-weeks-old male rats of the Sprague-Dawley strain, weighing 300-400 g, were anesthetized with urethane (750 mg/kg, i.p.) and a-chloralose (37.5 mg/kg, i.p.). A bronchus was intubated, and the right jugular vein was cannulated for drug administration. […] To evoke an increase in airway resistance, acetylcholine (50 μg/kg, i.v.) was administered to the animals. Mean values for the acetylcholine-induced increase in airway resistance as measured five minutes before (control) and five minutes after test compound administration were calculated and the results were expressed as percentages of the control response. The ID50 value was calculated from the dose-response curve of the test compound using probit analysis and defined as the drug dose that inhibited the acetylcholine-induced increase in airway resistance in the control group by 50 %.

T1 sequence (P08483 whole entry): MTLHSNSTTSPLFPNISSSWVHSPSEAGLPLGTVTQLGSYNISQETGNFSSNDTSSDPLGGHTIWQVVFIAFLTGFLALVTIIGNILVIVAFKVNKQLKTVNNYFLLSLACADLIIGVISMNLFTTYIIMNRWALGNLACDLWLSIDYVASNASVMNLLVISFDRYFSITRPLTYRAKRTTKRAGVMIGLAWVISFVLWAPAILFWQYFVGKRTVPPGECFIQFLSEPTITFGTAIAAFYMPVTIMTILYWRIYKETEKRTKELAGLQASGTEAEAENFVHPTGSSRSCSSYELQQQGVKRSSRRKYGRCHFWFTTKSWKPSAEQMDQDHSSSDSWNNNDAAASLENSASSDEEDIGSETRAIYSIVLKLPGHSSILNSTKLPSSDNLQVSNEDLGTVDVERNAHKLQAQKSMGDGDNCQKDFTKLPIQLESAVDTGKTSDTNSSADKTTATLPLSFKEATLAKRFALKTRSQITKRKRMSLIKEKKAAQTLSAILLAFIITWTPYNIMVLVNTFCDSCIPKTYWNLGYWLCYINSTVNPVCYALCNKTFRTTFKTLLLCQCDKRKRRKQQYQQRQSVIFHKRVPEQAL

## CC(C)=CCCN1CCC(NC(=O)C(O)(c2ccccc2)C2CCC2)CC1 (centres unmarked) [Example 1, N-[1-(4-methyl-3-pentenyl)-piperidin-4-yl]-2-cyclobutyl-2-hydroxy-2-phenylacetamide]
Muscarinic M3 receptor [1]
  Ki: 0.0089 µM
Muscarinic M3 receptor [1]; ratio of binding Ki, M1 over M3
  M1/M3: 5.0
Muscarinic M3 receptor [1]; ratio of binding Ki, M2 over M3
  M2/M3: 96
Muscarinic M1 receptors
  Ki: 0.045 µM
Muscarinic M3 receptor [2]
  ED50: 0.023 mg/kg
